Test results taken from PubChem BioAssay (NCI).
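Each compound was tested at five concentrations against cells in 96-well plates for 48 hours. Abbreviation: GI50, concentration required for 50% inhibition of growth. At the TGI there is no net growth.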

Experiments:
Test in all cases: NCI tumour cell line growth inhibition, 48 h
[1] = test system: 786-0 renal
[2] = test system: DU-145 prostate
[3] = test system: SNB-75 CNS
[4] = test system: SF-295 CNS
[5] = test system: NCI-H226 lung
[6] = test system: OVCAR-8 ovarian
[7] = test system: BT-549 breast
[8] = test system: T-47D breast
[9] = test system: SK-OV-3 ovarian
[10] = test system: NCI-H522 lung

Structure (SMILES)	TGI [1] [µM]	TGI [2] [µM]	TGI [3] [µM]	TGI [4] [µM]	TGI [5] [µM]	TGI [6] [µM]	TGI [7] [µM]	TGI [8] [µM]	TGI [9] [µM]	TGI [10] [µM]	GI50 [10] [µM]	GI50 [1] [µM]	GI50 [2] [µM]	GI50 [3] [µM]	GI50 [4] [µM]	GI50 [5] [µM]	GI50 [6] [µM]	GI50 [8] [µM]	GI50 [9] [µM]	GI50 [7] [µM]
CCn1c(CCl)nc2c1C(=O)c1ccccc1C2=O	> 100	9.02	3.62	3.54	0.473	2.95	4.09	4.21	2.38	–	–	–	–	–	–	–	–	–	–	–
C/C(=N\NC(=S)N1CCCCCC1)c1cccc2cccnc12	> 86.9	> 100	> 91.6	> 21	–	> 100	> 92.4	70.9	> 81.5	> 100	–	–	–	–	–	–	–	–	–	–
CCCCCCCCCCCc1c(O)c(=O)c2c(oc3c(=O)c(CCCCCCCCCCC)c(O)c(=O)c3n2-c2ccc(N(C)C)cc2)c1=O	33.9	–	62.4	46.2	36.3	51.5	–	–	37.9	> 100	–	–	–	–	–	–	–	–	–	–
C#CCN(Cc1ccc2nc(-c3ccccc3)c(N)nc2c1)c1cc(OC)c(OC)c(OC)c1	> 100	–	83.5	66	52	> 100	–	–	–	64.3	–	–	–	–	–	–	–	–	–	–
CC(=O)NC1=NC(=O)/C(=C/c2ccc(/C=C3/C(=O)N=C(NC(C)=O)N3C)cc2)N1C	> 100	> 100	> 100	> 100	> 100	> 100	> 100	> 100	> 100	–	–	–	–	–	–	–	–	–	–	–
COc1ccc(C(=O)C#Cc2c[nH]c(=O)[nH]c2=O)cc1	25	–	45.5	96.2	42.4	32.5	–	–	> 100	10.6	–	–	–	–	–	–	–	–	–	–
COc1cccc(SSc2cccc(OC)c2C(=O)O)c1C(=O)O	> 100	–	> 100	> 100	> 100	> 100	–	–	> 100	> 100	–	–	–	–	–	–	–	–	–	–
N#Cc1cccc(C=NC23CC4CC(CC(C4)C2)C3)c1	> 100	–	–	> 100	> 100	> 100	–	–	> 100	> 100	–	–	–	–	–	–	–	–	–	–
c1ccc(OCc2nnc3n2N=C(c2ccccc2)CS3)cc1	> 100	–	95.1	> 100	> 100	> 100	–	–	> 100	> 100	–	–	–	–	–	–	–	–	–	–
Cc1nc2cc(Nc3ccccc3C(=O)O)ccc2s1	> 100	–	> 100	> 100	–	> 100	–	–	> 100	> 100	–	–	–	–	–	–	–	–	–	–
COc1ccc(NC(=O)CC(=O)n2nc(C)c(N=Nc3ccccc3C(=O)O)c2C)cc1	> 100	–	78.8	> 100	–	> 100	–	–	94.2	> 100	–	–	–	–	–	–	–	–	–	–
C[C@H](CCC1SC1(C)C)C1CCC2(C)C3=C(CC[C@]12C)[C@@]1(C)CC[C@H](O)C(C)(C)C1CC3 (stereo partly specified)	> 100	–	> 100	> 100	> 100	> 100	–	–	> 100	> 100	–	–	–	–	–	–	–	–	–	–
CC(=O)NC(C=O)C(O[C@H](C)C(=O)NC(C)C(=O)NC(CCC(N)=O)C(=O)OCc1ccccc1)C(O)C(O)COC(=O)CCNc1c2ccccc2nc2cccc([N+](=O)[O-])c12 (stereo partly specified)	18.7	–	17.8	38.5	6.89	18.7	–	–	–	4.49	–	–	–	–	–	–	–	–	–	–
Cc1nc2ccccc2nc1N=Nc1ccccc1	> 100	> 100	> 100	> 100	> 100	> 100	–	67.7	> 100	63.1	20.4	26.9	36.1	18.3	6.38	24.6	22.4	10.1	34.9	–
N#CC1=C(O)NC(O)=C(C#N)C1c1ccc(C2C(C#N)=C(O)NC(O)=C2C#N)cc1	> 100	–	> 100	> 100	> 100	> 100	–	–	> 100	43.6	–	–	–	–	–	–	–	–	–	–
Cc1cccc2c3c(sc12)C(c1ccc(F)cc1)C(C#N)=C(N)O3 (stereo unspecified)	14.2	13	0.0936	0.329	3.9	14.2	3.18	–	27.8	1.49	0.0353	0.297	0.151	0.0236	0.0284	0.239	0.128	–	1.35	0.297
O=C1CN(c2cccc(Cl)c2)C(=O)CN1NCNN1CC(=O)N(c2cccc(Cl)c2)CC1=O	> 100	> 100	> 100	> 100	–	> 100	> 100	–	> 100	> 100	–	–	–	–	–	–	–	–	–	–
NC(=S)N1N=C2c3ccccc3CC[C@H]2[C@@H]1c1ccc(Cl)cc1	> 100	–	–	> 100	51.5	> 100	–	–	> 100	35.4	–	–	–	–	–	–	–	–	–	–
Cl.Fc1c[c-]c(-c2ccccn2)c(F)c1.[Pt].c1ccc([PH+](C[PH+](c2ccccc2)c2ccccc2)c2ccccc2)cc1	0.468	1.33	0.781	–	–	1.73	–	1.02	0.84	–	–	0.211	0.355	0.183	–	–	0.303	0.135	0.293	–
COc1ccc(C(=O)c2sc3nc(-c4cccs4)ccc3c2N)cc1OC	> 100	> 100	> 100	18.2	> 100	> 100	> 100	–	> 100	95.8	2.86	62.4	16	4.06	3.07	17.9	5.56	–	51.9	3.82
CC(=O)c1ccc(NC(=O)C(=O)C(C#N)CC(C)(C)C=O)cc1 (stereo unspecified)	> 100	–	–	> 100	> 100	> 100	–	–	> 100	> 100	–	–	–	–	–	–	–	–	–	–
COc1ccc(-c2csc(NC(=O)CN3CCN(c4cc5c(cc4F)c(=O)c(C(=O)O)cn5C4CC4)CC3)n2)cc1	31.1	> 100	34.2	15.9	> 100	> 100	> 100	–	8.32	> 100	3.48	3.6	3.35	3.31	2.73	4.96	3.2	–	2.86	3.03
O=c1c2cc3c(cc2c2cccc4c2n1CCC4)OCO3	> 100	–	> 100	> 100	> 100	> 100	–	–	> 100	42	–	–	–	–	–	–	–	–	–	–

Structure (SMILES)	TGI [1] [µM]	TGI [2] [µM]	TGI [3] [µM]	TGI [4] [µM]	TGI [5] [µM]	TGI [6] [µM]	TGI [7] [µM]	TGI [8] [µM]	TGI [9] [µM]	TGI [10] [µM]	GI50 [10] [µM]	GI50 [1] [µM]	GI50 [2] [µM]	GI50 [3] [µM]	GI50 [4] [µM]	GI50 [5] [µM]	GI50 [6] [µM]	GI50 [8] [µM]	GI50 [9] [µM]	GI50 [7] [µM]
C=C(C(=C)P(=S)(C(C)C)C(C)C)P(=S)(C(C)C)C(C)C	> 100	–	> 100	> 100	> 100	> 100	–	–	> 100	> 100	–	–	–	–	–	–	–	–	–	–
O=c1[nH]cnc2c(COCCO)c[nH]c12	> 100	–	> 100	> 100	> 100	> 100	–	–	> 100	> 100	–	–	–	–	–	–	–	–	–	–
O=C(/C=C(\C(=O)c1cccs1)c1cccs1)c1ccc(C(=O)/C=C(\C(=O)c2cccs2)c2cccs2)cc1	> 100	> 100	> 100	> 100	> 100	> 100	–	> 100	> 100	–	–	–	–	–	–	–	–	–	–	–
N#CC(C#N)=C/C=C(\Sc1ccc(F)cc1Cl)c1ccc(Cl)cc1	2.39	8.55	31	6.79	–	6.46	3.7	5.19	23.4	10.8	1.93	0.523	0.657	10.3	0.639	–	0.601	0.659	2.8	0.598
Nc1nc(N)c2nc3c(nc2n1)CCCCCCCCCC3	> 100	> 100	51.2	> 100	> 100	> 100	–	> 100	> 100	–	–	0.675	2.78	5.35	0.509	19	1.99	> 100	12	–
O=c1cccc(-c2cccc(=O)[nH]2)[nH]1	> 100	–	> 100	> 100	> 100	> 100	–	–	> 100	–	–	–	–	–	–	–	–	–	–	–
CCN1C(=NCCO)NS(=O)(=O)c2ccccc21	> 100	> 100	–	> 100	> 100	> 100	> 100	> 100	> 100	> 100	–	–	–	–	–	–	–	–	–	–
NC(=O)CC(N=Cc1nc(-c2ccccc2)oc1O)C(=O)O (stereo unspecified)	> 100	–	> 100	> 100	> 100	> 100	–	–	> 100	> 100	–	–	–	–	–	–	–	–	–	–
O=C(NCCCl)SCCO	> 100	–	> 100	> 100	> 100	> 100	–	–	> 100	> 100	–	–	–	–	–	–	–	–	–	–
CCC1(CN(C)C)CC/C(=C\c2ccc(OC)c(OC)c2)C1=O (stereo unspecified)	> 100	–	> 100	> 100	> 100	> 100	–	–	> 100	> 100	–	–	–	–	–	–	–	–	–	–
COc1cccc(N2C(=O)C3C4C=C5c6ccccc6N(c6ccccc6)C5(C3C2=O)[C@H]2C(=O)N(c3cccc(OC)c3)C(=O)[C@@H]42)c1 (stereo partly specified)	> 100	–	> 100	> 100	> 100	> 100	–	–	> 100	–	–	–	–	–	–	–	–	–	–	–
Cc1c2c(c(C)c3c1[nH]c1ccccc13)CN(C)CC2	29.6	–	28.8	31.7	56.5	37.7	–	–	70.1	31.3	–	–	–	–	–	–	–	–	–	–
NC(CSSCC(N)C(=O)O)C(=O)O (stereo unspecified)	> 100	> 100	> 100	> 100	> 100	> 100	> 100	> 100	> 100	–	–	> 100	> 100	> 100	> 100	> 100	> 100	> 100	> 100	> 100
CN(CCCCCl)P(=O)(OCc1ccc([N+](=O)[O-])o1)OCC1OC(n2cnc([N+](=O)[O-])c2N)C(O)C1O (stereo unspecified)	> 100	> 100	> 100	> 100	> 100	> 100	> 100	–	> 100	> 100	> 100	> 100	> 100	> 100	> 100	> 100	> 100	–	> 100	> 100
COC(=O)Cc1cc(=O)[nH]c2c1C(=O)CCC2	> 100	–	–	> 100	> 100	> 100	–	–	> 100	> 100	–	–	–	–	–	–	–	–	–	–
Cc1ccc(S(=O)(=O)N/N=C/C(C)C)cc1	> 100	–	> 100	> 100	–	> 100	–	–	> 100	–	–	–	–	–	–	–	–	–	–	–
Cc1ccc(C2NC(=O)c3ccccc3N2)c(C)c1 (stereo unspecified)	97.5	> 100	6.8	> 35	47.8	> 71.5	–	> 100	> 100	4.91	–	–	–	–	–	–	–	–	–	–
CC(=O)c1ccc(NC(=O)COC(=O)c2cccc3c(=O)c4ccccc4[nH]c23)cc1	> 100	–	31.5	49.2	46.2	> 100	–	–	> 100	> 100	–	–	–	–	–	–	–	–	–	–
O=C1CCCCC12CCC/C2=N\O (stereo unspecified)	> 100	–	> 100	–	> 100	> 100	–	–	> 100	> 100	–	–	–	–	–	–	–	–	–	–
O=[N+]([O-])c1cc2no[n+]([O-])c2cc1N1CCCCC1	2.62	6.18	9.8	34.8	> 100	5.74	45.2	5.53	27.4	–	–	–	–	–	–	–	–	–	–	–
OCCN(CCO)c1cccc(N(CCO)CCO)n1	> 100	–	> 100	> 100	–	> 100	–	–	> 100	> 100	–	–	–	–	–	–	–	–	–	–
COc1cc2ccnc3c(=C(SC)SC)c(=O)c(c1OC)c23	23.1	–	21.8	> 100	–	22.7	–	–	> 100	5.18	–	–	–	–	–	–	–	–	–	–
O=C1OC(=O)C2C3C=CC(C12)C1C2C=CC2C31 (stereo unspecified)	> 100	–	–	> 100	> 100	> 100	–	–	> 100	> 100	–	–	–	–	–	–	–	–	–	–
